Where a name gives a salt, the structure may show the parent alone.
Key:
Swiss albino mice = assay: Serum triglyceride lowering activity in Swiss albino mice; type: in vivo; settings: Mus musculus, po, 144 h; male Swiss albino mice, 10 mg/kg/day orally for 6 days, serum 1 hour after dosing on 6th day
Procedure: Male Swiss albino mice (SAM) were bred in Zydus animal house. All these animals were maintained under 12 hour light and dark cycle at 25±1° C. Animals were given standard laboratory chow (NIN, Hyderabad, India) and water ad libitum. SAM of 20-30 g body weight range was used. The protocol approved by Institutional Animal Ethics Committee is being used.
The test compounds were administered orally to Swiss albino mice at 0.001 to 50 mg/kg/day dose for 6 days. The compound was administered after suspending it in 0.25% CMC or dissolving it in water, when compound is water-soluble. Control mice were treated with vehicle (0.25% of Carboxymethyl cellulose; dose 10 ml/kg).
The blood samples were collected on 0th day and in fed state 1 hour after drug administration on 6th day of the treatment. The blood was collected in non heparinised capillary and the serum was analyzed for triglyceride (Wieland, O. Methods of Enzymatic analysis. Bergermeyer, H., O., Ed., 1963. 211-214; Trinder, P. Ann. Clin. Biochem. 1969. 6: 24-27). Measurement of serum triglyceride was done using commercial kits (Zydus-Cadila, Pathline, Ahmedabad, India).
Percentage Reduction in Triglycerides was Calculated According to the Formula: […]

C57BL/KsJ-db/db mice = assay: Serum glucose and triglycerides lowering activity in db/db mice; type: in vivo; settings: male db/db mice, 3 mg/kg/day oral gavage for 6 days, 1 hour after dosing on 6th day
Procedure: Homozygous animal C57BL/KsJ-db/db mice are obese, hyperglycemic, hyperinsulinemic and insulin resistant (J. Clin. Invest, 85, 962-967, 1990), whereas heterozygous are lean and normoglycemic. The homozygous animals very closely mimic the human type H diabetes when blood sugar levels are not sufficiently controlled. Since this type of model resembles human type II diabetes mellitus, the compounds of the invention were tested for their antidiabetic activity in this model.
Male C57BL/KsJ-db/db mice of 8 to 14 weeks age, having body weight range of 40 to 60 grams, procured from the Jackson Laboratory, USA, were used in the experiment.
Test compounds were suspended on 0.25% carboxymethyl cellulose or dissolved in water when the compound is water soluble and administered to test group containing 6 animals at a dose of 0.001 mg to 50 mg/kg through oral gavage daily for 6 days. The control group received vehicle (dose 10 ml/kg). On the 6th day, one hour after the drug dosing, blood was collected from retro-orbital sinus and the serum was analyzed for glucose and triglycerides were measured using commercial kits (Zydus-Cadila, Pathline, Ahmedabad, India). The serum glucose and triglyceride lowering activities of the test compound was calculated according of the formula: […]

CCC(=NOCCCCC1COC(C)(C(=O)O)OC1)c1ccc(OC)cc1 (centres unmarked) [Example 77, 5-{4-[1-(4-Methoxy-phenyl)-propylideneaminooxy]-butyl}-2-methyl-[1,3]dioxane-2-carboxylic Acid]
inhibition in vivo at 10 mg/kg/day (Swiss albino mice): 39%

CC(=NOCCCCC1COC(C)(C(=O)O)OC1)c1ccc2ccccc2c1 (centres unmarked) (as salt: sodium) [Example 84, Sodium Salt of 2-Methyl-5-[4-(1-naphthalen-2-yl-ethylideneaminooxy)-butyl]-[1,3]dioxane-2-carboxylic Acid]
melting point: 240 °C

COc1ccc(C(C)=NOCCCCC2COC(C)(C(=O)O)OC2)cc1 (centres unmarked) [Example 66, 5-{4-[1-(4-Methoxy-phenyl)-ethylideneaminooxy]-butyl}-2-methyl-[1,3]dioxane-2-carboxylic Acid]
inhibition in vivo at 10 mg/kg/day (Swiss albino mice): 50% | Plasma TG reduction (%) (C57BL/KsJ-db/db mice): 45% | Serum Glucose reduction (%) (C57BL/KsJ-db/db mice): 27%

CC(=NOCCCCC1COC(C)(C(=O)O)OC1)c1ccc(C)cc1 (centres unmarked) [Example 48, 2-Methyl-5-[4-(1-p-tolyl-ethylideneaminooxy)-butyl]-[1,3]dioxane-2-carboxylic Acid]
inhibition in vivo at 10 mg/kg/day (Swiss albino mice): 64% | Plasma TG reduction (%) (C57BL/KsJ-db/db mice): 44% | Serum Glucose reduction (%) (C57BL/KsJ-db/db mice): 14%

COc1ccc(C(C)=NOCCCCC2COC(C)(C(=O)O)OC2)cc1C (centres unmarked) [Example 57, 5-{4-[1-(4-Methoxy-3-methyl-phenyl)-ethylideneaminooxy]-butyl}-2-methyl-[1,3]dioxane-2-carboxylic Acid]
inhibition in vivo at 10 mg/kg/day (Swiss albino mice): 43%

CCc1ccc(C(C)=NOCCCCC2COC(C)(C(=O)O)OC2)cc1 (centres unmarked) [Example 52, 5-{4-[1-(4-Ethyl-phenyl)-ethylideneaminooxy]-butyl}-2-methyl-[1,3]dioxane-2-carboxylic Acid]
inhibition in vivo at 10 mg/kg/day (Swiss albino mice): 36%

COc1ccc(C(C)=NOCCCCC2COC(C)(C(=O)O)OC2)cc1OC (centres unmarked) [Example 59, 5-{4-[1-(3,4-Dimethoxy-phenyl)-ethylideneaminooxy]-butyl}-2-methyl-[1,3]dioxane-2-carboxylic Acid]
inhibition in vivo at 10 mg/kg/day (Swiss albino mice): 22%

CCOc1ccc(C(C)=NOCCCCC2COC(C)(C(=O)O)OC2)cc1 (centres unmarked) [Example 55, 5-{4-[1-(4-Ethoxy-phenyl)-ethylideneaminooxy]-butyl}-2-methyl-[1,3]dioxane-2-carboxylic Acid]
inhibition in vivo at 10 mg/kg/day (Swiss albino mice): 46%

CC(=NOCCCCCC1COC(C)(C(=O)O)OC1)c1ccc2ccccc2c1 (centres unmarked) [Example 62, 2-Methyl-5-[5-(1-naphthalen-2-yl-ethylideneaminooxy)-pentyl]-[1,3]dioxane-2-carboxylic Acid]
inhibition in vivo at 10 mg/kg/day (Swiss albino mice): 69%

CCCCCCCCOC(=O)C1(C)OCC(CCCCON=C(C)c2ccc3ccccc3c2)CO1 (centres unmarked) [Example 83, Octyl-2-methyl-5-[4-(1-naphthalen-2-yl-ethylideneaminooxy)-butyl]-[1,3]dioxane-2-carboxylate]
inhibition in vivo at 10 mg/kg/day (Swiss albino mice): 61%

CC(=NOCCCCC1COC(C)(C(=O)O)OC1)c1ccc(-c2ccccc2)cc1 (centres unmarked) [Example 70, 5-[4-(1-Biphenyl-4-yl-ethylideneaminooxy)-butyl]-2-methyl-[1,3]dioxane-2-carboxylic Acid]
inhibition in vivo at 10 mg/kg/day (Swiss albino mice): 49% | Plasma TG reduction (%) (C57BL/KsJ-db/db mice): 52% | Serum Glucose reduction (%) (C57BL/KsJ-db/db mice): 26%

CC(=NOCCCCC1COC(C)(C(=O)O)OC1)c1ccc(OS(C)(=O)=O)cc1 (centres unmarked) [Example 67, 5-{4-[1-(4-Methanesulfonyloxy-phenyl)-ethylideneaminooxy]-butyl}-2-methyl-[1,3]dioxane-2-carboxylic Acid]
inhibition in vivo at 10 mg/kg/day (Swiss albino mice): 75% | Plasma TG reduction (%) (C57BL/KsJ-db/db mice): 48% | Serum Glucose reduction (%) (C57BL/KsJ-db/db mice): 12%

CC(=NOCCCCC1COC(C)(C(=O)O)OC1)c1ccc2c(c1)CCCC2 (centres unmarked) [Example 64, 2-Methyl-5-{4-[1-(5,6,7,8-tetrahydro-naphthalen-2-yl)-ethylideneaminooxy]-butyl}-[1,3]dioxane-2-carboxylic Acid]
inhibition in vivo at 10 mg/kg/day (Swiss albino mice): 85% | Plasma TG reduction (%) (C57BL/KsJ-db/db mice): 46% | Serum Glucose reduction (%) (C57BL/KsJ-db/db mice): 31%

CC(=NOCCCCC1COC(C)(C(=O)O)OC1)c1cccc(C)c1 (centres unmarked) [Example 76, 2-Methyl-5-[4-(1-m-tolyl-ethylideneaminooxy)-butyl]-[1,3]dioxane-2-carboxylic Acid]
inhibition in vivo at 10 mg/kg/day (Swiss albino mice): 67%

CC(=NOCCCCC1COC(C)(C(=O)O)OC1)c1ccc(CC(C)C)cc1 (centres unmarked) [Example 60, 5-{4-[1-(4-Isobutyl-phenyl)-ethylideneaminooxy]-butyl}-2-methyl-[1,3]dioxane-2-carboxylic Acid]
inhibition in vivo at 10 mg/kg/day (Swiss albino mice): 62%

CC(=NOCCCCC1COC(C)(C(=O)O)OC1)c1ccc(C(F)(F)F)cc1 (centres unmarked) [Example 44, 2-Methyl-5-{4-[1-(4-trifluoromethyl-phenyl)-ethylideneaminooxy]-butyl}-[1,3]dioxane-2-carboxylic Acid]
inhibition in vivo at 10 mg/kg/day (Swiss albino mice): 40%

CC(=NOCCCCC1COC(C)(C(=O)O)OC1)c1ccc2c(c1)OCO2 (centres unmarked) [Example 69, 5-[4-(1-Benzo[1,3]dioxol-5-yl-ethylideneaminooxy)-butyl]-2-methyl-[1,3]dioxane-2-carboxylic acid]
inhibition in vivo at 10 mg/kg/day (Swiss albino mice): 61%

CCC(=NOCCCCC1COC(C)(C(=O)O)OC1)c1ccc(C)cc1 (centres unmarked) [Example 78, 2-Methyl-5-[4-(1-p-tolyl-propylideneaminooxy)-butyl]-[1,3]dioxane-2-carboxylic Acid]
inhibition in vivo at 10 mg/kg/day (Swiss albino mice): 42%

COc1ccc(C(C)=NOCCCCC2COC(C)(C(=O)O)OC2)cc1F (centres unmarked) [Example 61, 5-{4-[1-(3-Fluoro-4-methoxy-phenyl)-ethylideneaminooxy]-butyl}-2-methyl-[1,3]dioxane-2-carboxylic Acid]
inhibition in vivo at 10 mg/kg/day (Swiss albino mice): 44%

CC(=NOCCCCC1COC(C)(C(=O)O)OC1)c1ccc(Cl)cc1 (centres unmarked) [Example 46, 5-{4-[1-(4-Chloro-phenyl)-ethylideneaminooxy]-butyl}-2-methyl-[1,3]dioxane-2-carboxylic Acid]
inhibition in vivo at 10 mg/kg/day (Swiss albino mice): 39%

CC(=NOCCCCC1COC(C)(C(=O)O)OC1)c1ccc(F)c(Cl)c1 (centres unmarked) [Example 49, 5-{4-[1-(3-Chloro-4-fluoro-phenyl)-ethylideneaminooxy]-butyl}-2-methyl-[1,3]dioxane-2-carboxylic Acid]
inhibition in vivo at 10 mg/kg/day (Swiss albino mice): 51%

CC(=NOCCCCC1COC(C)(C(=O)O)OC1)c1ccc2ccccc2c1 (centres unmarked) [Example 63, 2-Methyl-5-[4-(1-naphthalen-2-yl-ethylideneaminooxy)-butyl]-[1,3]dioxane-2-carboxylic Acid]
inhibition in vivo at 10 mg/kg/day (Swiss albino mice): 84% | Plasma TG reduction (%) (C57BL/KsJ-db/db mice): 59% | Serum Glucose reduction (%) (C57BL/KsJ-db/db mice): 41%

CC(=NOCCCCC1COC(C)(C(=O)O)OC1)c1cccs1 (centres unmarked) [Example 68, 2-Methyl-5-[4-(1-thiophen-2-yl-ethylideneaminooxy)-butyl]-[1,3]dioxane-2-carboxylic Acid]
inhibition in vivo at 10 mg/kg/day (Swiss albino mice): 33%
